In patent US20120010161A1, “NOVEL AZAPEPTIDE OR AZAPEPTIDOMIMETIC COMPOUNDS INHIBITING BCRP AND/OR P-GP” (CENTRE NATIONAL DE LA RECHERCHE SCIENTIFIQUE, priority 2009, published 2012):

Key:
ABCG2 = molecular target: T1, ABCG2 (Homo sapiens, UniProt Q9UNQ0); details: cited from earlier work
T1 sequence (Q9UNQ0 1-655): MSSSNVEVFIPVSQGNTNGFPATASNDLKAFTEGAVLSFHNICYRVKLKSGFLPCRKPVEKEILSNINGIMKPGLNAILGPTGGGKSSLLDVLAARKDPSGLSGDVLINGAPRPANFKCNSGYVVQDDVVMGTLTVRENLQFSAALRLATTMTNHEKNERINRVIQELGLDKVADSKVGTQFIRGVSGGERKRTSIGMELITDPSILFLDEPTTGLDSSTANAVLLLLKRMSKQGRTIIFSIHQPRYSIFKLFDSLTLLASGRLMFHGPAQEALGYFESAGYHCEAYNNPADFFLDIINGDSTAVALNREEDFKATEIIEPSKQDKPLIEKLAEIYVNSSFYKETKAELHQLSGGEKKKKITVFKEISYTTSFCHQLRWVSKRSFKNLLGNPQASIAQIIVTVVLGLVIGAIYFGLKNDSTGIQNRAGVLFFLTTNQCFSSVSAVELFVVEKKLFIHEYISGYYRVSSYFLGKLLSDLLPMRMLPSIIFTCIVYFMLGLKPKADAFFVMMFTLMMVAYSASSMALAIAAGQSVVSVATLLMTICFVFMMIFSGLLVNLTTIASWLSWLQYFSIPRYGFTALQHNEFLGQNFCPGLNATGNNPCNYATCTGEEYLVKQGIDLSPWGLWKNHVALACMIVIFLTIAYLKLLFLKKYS

ABCB1 [1] = molecular target: T2, ABCB1 (Homo sapiens, UniProt P08183); details: cited from earlier work
T2 sequence (P08183 whole entry): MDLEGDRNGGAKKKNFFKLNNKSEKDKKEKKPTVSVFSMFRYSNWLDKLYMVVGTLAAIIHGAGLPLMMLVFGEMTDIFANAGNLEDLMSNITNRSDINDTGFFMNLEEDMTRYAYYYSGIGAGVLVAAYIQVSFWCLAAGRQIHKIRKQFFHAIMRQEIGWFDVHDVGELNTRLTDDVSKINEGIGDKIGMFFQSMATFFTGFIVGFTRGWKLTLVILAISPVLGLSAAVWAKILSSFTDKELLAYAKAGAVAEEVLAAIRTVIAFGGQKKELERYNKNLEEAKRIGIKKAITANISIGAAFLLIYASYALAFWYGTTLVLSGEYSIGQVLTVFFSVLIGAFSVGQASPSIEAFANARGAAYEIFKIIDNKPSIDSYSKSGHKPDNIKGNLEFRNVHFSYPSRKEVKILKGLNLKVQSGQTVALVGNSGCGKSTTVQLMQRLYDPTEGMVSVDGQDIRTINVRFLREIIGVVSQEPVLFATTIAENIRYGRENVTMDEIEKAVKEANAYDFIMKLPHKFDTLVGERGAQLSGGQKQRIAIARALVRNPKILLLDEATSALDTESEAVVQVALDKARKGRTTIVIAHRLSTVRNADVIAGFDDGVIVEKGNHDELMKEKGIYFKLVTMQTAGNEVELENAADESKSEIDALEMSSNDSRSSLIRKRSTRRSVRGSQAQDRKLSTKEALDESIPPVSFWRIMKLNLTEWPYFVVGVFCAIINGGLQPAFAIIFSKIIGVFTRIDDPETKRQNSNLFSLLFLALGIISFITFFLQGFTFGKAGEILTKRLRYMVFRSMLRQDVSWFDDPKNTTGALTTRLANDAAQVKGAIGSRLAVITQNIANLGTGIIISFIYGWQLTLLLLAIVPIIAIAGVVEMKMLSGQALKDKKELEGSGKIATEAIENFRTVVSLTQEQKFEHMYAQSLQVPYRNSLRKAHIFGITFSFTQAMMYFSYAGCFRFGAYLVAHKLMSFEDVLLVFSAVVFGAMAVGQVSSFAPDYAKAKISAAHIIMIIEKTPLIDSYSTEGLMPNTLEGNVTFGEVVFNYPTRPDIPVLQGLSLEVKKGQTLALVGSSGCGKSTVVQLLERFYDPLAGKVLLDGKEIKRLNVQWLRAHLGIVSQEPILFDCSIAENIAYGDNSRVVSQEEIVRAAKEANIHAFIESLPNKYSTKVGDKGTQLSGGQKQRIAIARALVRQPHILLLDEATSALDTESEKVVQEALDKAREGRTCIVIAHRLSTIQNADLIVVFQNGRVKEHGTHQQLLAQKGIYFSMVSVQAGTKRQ

ABCC1 = ABCC1 (Homo sapiens, UniProt P33527); details: cited from earlier work
ABCC1, sequence (P33527 whole entry): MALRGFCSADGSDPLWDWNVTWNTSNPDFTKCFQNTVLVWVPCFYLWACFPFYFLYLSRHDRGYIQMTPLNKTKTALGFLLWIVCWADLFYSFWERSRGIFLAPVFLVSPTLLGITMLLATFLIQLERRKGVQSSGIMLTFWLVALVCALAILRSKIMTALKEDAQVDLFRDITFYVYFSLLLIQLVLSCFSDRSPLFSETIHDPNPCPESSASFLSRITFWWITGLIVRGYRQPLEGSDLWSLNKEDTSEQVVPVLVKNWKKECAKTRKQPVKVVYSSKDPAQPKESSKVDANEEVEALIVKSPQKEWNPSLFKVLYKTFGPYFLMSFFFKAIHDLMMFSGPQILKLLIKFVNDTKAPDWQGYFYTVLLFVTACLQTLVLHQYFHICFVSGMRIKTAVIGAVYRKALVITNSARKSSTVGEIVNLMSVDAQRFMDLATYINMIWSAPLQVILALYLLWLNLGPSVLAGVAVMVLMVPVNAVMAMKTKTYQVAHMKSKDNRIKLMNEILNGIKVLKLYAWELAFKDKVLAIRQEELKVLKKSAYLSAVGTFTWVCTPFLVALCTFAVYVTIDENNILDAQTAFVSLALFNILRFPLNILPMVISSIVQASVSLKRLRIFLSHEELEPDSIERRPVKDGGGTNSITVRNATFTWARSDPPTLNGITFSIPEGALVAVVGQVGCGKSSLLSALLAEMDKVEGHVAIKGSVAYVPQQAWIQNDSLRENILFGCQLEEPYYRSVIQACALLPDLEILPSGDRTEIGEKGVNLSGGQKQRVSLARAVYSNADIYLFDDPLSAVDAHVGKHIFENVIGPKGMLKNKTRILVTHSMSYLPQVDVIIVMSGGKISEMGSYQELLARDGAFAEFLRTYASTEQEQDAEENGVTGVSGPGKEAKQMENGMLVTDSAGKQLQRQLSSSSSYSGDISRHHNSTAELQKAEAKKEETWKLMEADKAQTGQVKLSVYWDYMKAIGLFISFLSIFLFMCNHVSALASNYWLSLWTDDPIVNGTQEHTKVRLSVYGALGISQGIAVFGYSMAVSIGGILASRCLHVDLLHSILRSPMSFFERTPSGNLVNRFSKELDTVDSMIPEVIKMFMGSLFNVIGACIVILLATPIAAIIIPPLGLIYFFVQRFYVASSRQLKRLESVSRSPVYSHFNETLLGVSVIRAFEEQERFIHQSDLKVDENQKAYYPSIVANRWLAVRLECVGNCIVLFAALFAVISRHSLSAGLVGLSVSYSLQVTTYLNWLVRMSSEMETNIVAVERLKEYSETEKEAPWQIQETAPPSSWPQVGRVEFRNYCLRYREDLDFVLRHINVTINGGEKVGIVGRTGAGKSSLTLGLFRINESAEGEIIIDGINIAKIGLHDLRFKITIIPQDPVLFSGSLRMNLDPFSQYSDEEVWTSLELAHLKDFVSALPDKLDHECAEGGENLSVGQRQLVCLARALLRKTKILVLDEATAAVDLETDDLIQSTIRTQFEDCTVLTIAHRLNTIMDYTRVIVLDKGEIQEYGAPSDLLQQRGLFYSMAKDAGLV

BCRP/ABCG2 = molecular target: T3, BCRP/ABCG2 (Homo sapiens, UniProt Q9UNQ0); assay: Flow cytometry: mitoxantrone efflux induced by ABCG2 in transfected HEK-293 cells; format: cell-based
T3 construct: expressed in transfected cells; host or cells: HEK-293 transfected with pcDNA3.1-ABCG2
T3 sequence (Q9UNQ0 1-655): T1 sequence (Q9UNQ0 1-655)
Text: (§1) Cell cultures. The human […] HEK-293 transfected with the vector pcDNA3.1 including or not the gene encoding ABCG2 (Robey, R. W., Honjo, Y., Morisaki, K., Nadjem, T. A., Runge, S., Risbood, M., Poruchynsky, M. S., Bates, S. E. 2003, Br. J. Cancer 89(10) 1971-1978) was used to test the efficacy of the products on ABCG2. The newborn hamster kidney cell line BHK21 either natural (negative control) or transfected with the vector pNUT-MRP/His expressing the gene encoding ABCC1 (Chang, Xiu-Bao, Hou, Yue-Xian, Riordan, John R. 1997, J. Biol. Chem. 272(49) 30962-30968) was used to test the efficacy of the products on ABCC1. The cell line NIH3T3 natural or transfected with the vector pHaMDR1/A expressing ABCB1 (Cardarelli, Carol O., Aksentijevich, Ivan, Pastan, Ira, Gottesman, Michael M. 1995 Cancer Res. 55 1086-1091) was used to test the efficacy of the compounds on ABCB1. The various cell types are cultured according to the protocols described previously (Robey, R. W., Honjo, Y., Morisaki, K., Nadjem, T. A., Runge, S., Risbood, M., Poruchynsky, M. S., Bates, S. E. 2003, Br. J. Cancer 89(10) 1971-1978 for the line HEK293, Chang, Xiu-Bao, Hou, Yue-Xian, Riordan, John R. 1997, J. Biol. Chem. 272(49) 30962-30968 for the line BHK21 and Cardarelli, Carol O., Aksentijevich, Ivan, Pastan, Ira, Gottesman, Michael M. 1995 Cancer Res. 55 1086-1091 for the line NIH3T3).
(§2) FIG. 1 schematically illustrates an efflux of substrate induced by a typical ABC transporter. The substrates S, such as mitoxantrone effluxed with ABCG2 and ABCB1 or daunorubicin effluxed with ABCC1, are accumulated in the cells and expelled by the transporter T, leading to a decrease in intracellular fluorescence. In the case of accumulation of the product, typically by inhibition of the efflux protein, the intracellular fluorescence increases.
(§3) Flow cytometry. Transfected or untransfected HEK-293 and BHK-21 cells are in a first stage placed in contact with substrate (5 μM mitoxantrone or 1 μM daunorubicin depending on the transporter). The substrate is accumulated for 30 minutes at 37° C. in the presence or absence of varied concentrations of the test molecules, at 0.5% of DMSO final. After washing with PBS, the cells are incubated in medium containing the same concentrations of test molecules as previously, for 1 hour at 37° C. The drug intracellular fluorescence is measured with a FACscan flow cytometer (Becton Dickinson, Mountain View, Calif.). The fluorescent substrates are excited at 488 nm; the fluorescence emission of mitoxantrone (MTX) is measured at 650 nm and that of daunorubicin is measured at 530 nm. The efficacy of the test molecules is estimated by means of equation 1:
(§4) % efficacy=100×(FA−FBG)/(FC−FBG),
(§5) in which: • FA corresponds to the intracellular level of substrate measured in the cells overexpressing the transporter T (corresponding to the lowest level of fluorescence in the absence of inhibitor), • FC corresponds to the fluorescence in the control cells not expressing the test transporter. This is thus the maximum accumulation of substrate in the cells), • FBG corresponds to the fluorescence measured in the absence of substrate and in the presence of inhibitor.
(§6) The compounds presented in TABLES 2 to 5 were tested by flow cytometry on mammalian cell lines selectively expressing the efflux proteins ABCG2, ABCB1 or ABCC1, as described previously.
(§7) The mitoxantrone efflux induced by ABCG2 or ABCB1 and the daunorubicin efflux induced by ABCC1 are estimated by flow cytometry, as described previously, at 10 μM of each test compound, and then at 2 μM for the compounds showing at least 80% efficacy at 10 μM. The concentration inducing 50% inhibition (IC50) was estimated for the most efficient aza derivatives. The values are obtained by three independent experiments and were adjusted using the SigmaPlot software.

P-gp/ABCB1 = molecular target: T4, P-gp/ABCB1 (Homo sapiens, UniProt P08183); assay: Flow cytometry: mitoxantrone efflux induced by ABCB1 in transfected NIH3T3 cells; format: cell-based
T4 construct: expressed in transfected cells; host or cells: NIH3T3 transfected with pHaMDR1/A
T4 sequence (P08183 whole entry): as the sequence (P08183 whole entry) above
Text: as §1, §2, §3, §4, §5, §6, §7

ABCB1 [2] = molecular target: T2, ABCB1; assay: Type of inhibition: daunorubicin efflux at varied substrate and inhibitor concentrations (FIG. 11); format: cell-based; design: expressed in transfected cells; host or cells: NIH3T3 transfected with pHaMDR1/A; details: daunorubicin efflux as a function of its concentration

SMILES	active or inactive on ABCG2 (ABCG2)	active or inactive on ABCB1 (ABCB1 [1])	active or inactive on ABCC1 (ABCC1)	other results
COc1cc2c(cc1OC)CN(CCc1ccc(NC(=O)c3cccc4c(=O)c5cccc(OC)c5[nH]c34)cc1)CC2 [GF 120918, elacridar]	+	+	−	
CC(C)(C)OC(=O)NN(C(=O)N[C@@H](CCCCNC(=O)OCc1ccccc1)C(=O)OC(C)(C)C)c1ccc(C(=O)OCc2ccccc2)cc1 [IA.3, tert-Butyl ester of (2S)-6-(benzyloxycarbonylamino)-2-[1-(4′-(benzyloxycarbonyl)phenyl)-2-(tert-butoxycarbonyl)hydrazino-carbonylamino]hexanoic acid]				melting point: 106 °C; selectivity toward one or other of the proteins BCRP or P-gp (BCRP/ABCG2; BCRP versus P-gp): selective; inhibition at 10 μM (BCRP/ABCG2; human, HEK-293 cells transfected with ABCG2 (vector pcDNA3.1), probe mitoxantrone (5 μM), 10 μM compound, mitoxantrone efflux, HEK-293 cells, three independent experiments, read-out: BCRP/ABCG2 % efficacy 10 μM): 38%; IC50 (P-gp/ABCB1): 0.33 µM; inhibition at 2 μM (P-gp/ABCB1; human, NIH3T3 cells transfected with ABCB1 (vector pHaMDR1/A), probe mitoxantrone (5 μM), 2 μM compound, read-out: P-gp/ABCB1 % efficacy 2 μM): 90 ± 7%; inhibition at 10 μM (P-gp/ABCB1; human, NIH3T3 cells transfected with ABCB1 (vector pHaMDR1/A), probe mitoxantrone (5 μM), 10 μM compound, read-out: P-gp/ABCB1 % efficacy 10 μM): 98 ± 14%; type of inhibition of ABCB1 (ABCB1 [2]): inhibition of noncompetitive type
O[C@@H](COc1cccc2ncccc12)CN1CCN([C@@H]2c3ccccc3[C@@H]3[C@H](c4ccccc42)C3(F)F)CC1 [Ly335979, zosuquidar]	−		−	
CCOC/C=C/c1ccc(-c2nc(-c3ccc(NC(C)C)cc3)c(-c3ccc(NC(C)C)cc3)[nH]2)cc1 [ONT-093, ontogen]		+	−	
C/C=C/C[C@@H](C)C(=O)[C@H]1C(=O)N[C@@H](C(C)C)C(=O)N(C)CC(=O)N(C)[C@@H](CC(C)C)C(=O)N[C@@H](C(C)C)C(=O)N(C)[C@@H](CC(C)C)C(=O)N[C@@H](C)C(=O)N[C@H](C)C(=O)N(C)[C@@H](CC(C)C)C(=O)N(C)[C@@H](CC(C)C)C(=O)N(C)[C@@H](C(C)C)C(=O)N1C [PSC833, valspodar]	−	+		
COC(=O)c1cnc2n1CCc1ccccc1C2=C1CCN(CCc2ccc(OCc3ccc4ccccc4n3)cc2)CC1 [R101933, laniquidar]		+		
COc1cc(C(=O)C(=O)N2CCCC[C@H]2C(=O)OC(CCCc2cccnc2)CCCc2cccnc2)cc(OC)c1OC [VX-710, biricodar]	+	+	+	
COc1cc2c(cc1OC)CN(CCc1ccc(NC(=O)c3cc(OC)c(OC)cc3NC(=O)c3cnc4ccccc4c3)cc1)CC2 [XR9576, tariquidar]	+	+		
